How the values were obtained:
PHBPU [1] = assay: Pre-emergence herbicidal action against PHBPU; type: in vivo, Pharbitis purpurea; conditions: dosage 80 g/ha
Procedure, shortened: (§1)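 Visual rating at 3 weeks vs untreated pots; 0–100% scale, 100% = plants died. Treatment: aqueous WP/EC spray onto covering soil, 600–800 l/ha, 0.2% wetter, seeds in sandy loam.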

MATIN [2] = assay: Post-emergence herbicidal action against MATIN; type: in vivo, Matricaria inodora
Procedure, shortened: (§2)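 Weeds in sandy loam soil received a post-emergence spray at the one-leaf stage. Compounds were applied as WP or EC in water, 600 to 800 l/ha, with 0.2% wetting agent. Activity in % was judged visually after roughly 3 weeks against untreated plants.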

AMARE [3] = assay: Post-emergence herbicidal action against AMARE; type: in vivo, Amaranthus retroflexus; conditions: 20 g/ha, visual assessment about 3 weeks after treatment, 100% = plants have died, 0% = like control plants
Procedure, shortened: as §2

AVEFA = assay: Pre-emergence herbicidal action against AVEFA; type: in vivo, Avena fatua; conditions: 80 g/ha, pre-emergence
Procedure, shortened: as §1

ECHCG [4] = assay: Post-emergence herbicidal action against ECHCG; type: in vivo, Echinochloa crus-galli
Procedure, shortened: as §2

ECHCG [5] = assay: Pre-emergence herbicidal action against ECHCG; type: in vivo, Echinochloa crus-galli
Procedure, shortened: as §1

ABUTH [6] = assay: Pre-emergence herbicidal action against ABUTH; type: in vivo, Abutilon theophrasti
Procedure, shortened: as §1

VERPE [7] = assay: Post-emergence herbicidal action against VERPE; type: in vivo, Veronica persica
Procedure, shortened: as §2

PHBPU [8] = assay: Post-emergence herbicidal action against PHBPU; type: in vivo, Pharbitis purpurea; conditions: dosage 20 g/ha
Procedure, shortened: as §2

ALOMY [9] = assay: Pre-emergence herbicidal action against ALOMY; type: in vivo, Alopecurus myosuroides
Procedure, shortened: as §1

SETVI [10] = assay: Post-emergence herbicidal action against SETVI; type: in vivo, Setaria viridis
Procedure, shortened: as §2

MATIN [11] = assay: Pre-emergence herbicidal action against MATIN; type: in vivo, Matricaria inodora
Procedure, shortened: as §1

AMARE [12] = assay: Pre-emergence herbicidal action against AMARE; type: in vivo, Amaranthus retroflexus
Procedure, shortened: as §1

ABUTH [13] = assay: Post-emergence herbicidal action against ABUTH; type: in vivo, Abutilon theophrasti; conditions: visual assessment about 3 weeks after treatment vs untreated controls
Procedure, shortened: as §2

ALOMY [14] = assay: Post-emergence herbicidal action against ALOMY; type: in vivo, Alopecurus myosuroides; conditions: dosage 20 g/ha, visual assessment about 3 weeks after treatment vs untreated controls
Procedure, shortened: as §2

VIOTR [15] = assay: Post-emergence herbicidal action against VIOTR; type: in vivo, Viola tricolor
Procedure, shortened: as §2

VIOTR [16] = assay: Pre-emergence herbicidal action against VIOTR; type: in vivo, Viola tricolor
Procedure, shortened: as §1

POLCO = assay: Pre-emergence herbicidal action against POLCO; type: in vivo, Polygonum convolvulus
Procedure, shortened: as §1

SETVI [17] = assay: Pre-emergence herbicidal action against SETVI; type: in vivo, Setaria viridis; conditions: dosage 80 g/ha
Procedure, shortened: as §1

DIGSA [18] = assay: Pre-emergence herbicidal action against DIGSA; type: in vivo, Digitaria sanguinalis; conditions: Digitaria sanguinalis, 504 h
Procedure, shortened: as §1

VERPE [19] = assay: Pre-emergence herbicidal action against VERPE; type: in vivo, Veronica persica; conditions: Veronica persica, 504 h, dosage 80 g/ha
Procedure, shortened: as §1

DIGSA [20] = assay: Post-emergence herbicidal action against DIGSA; type: in vivo, Digitaria sanguinalis; conditions: Digitaria sanguinalis, 504 h
Procedure, shortened: as §2

[21] = 80 g/ha, scored visually after 3 weeks vs untreated controls (100% = plants have died, 0% = like control plants)
[22] = Tripleurospermum inodorum, 504 h, dosage 20 g/ha

CCc1c(C(=O)Nc2nnnn2C)ccc(C(F)(F)F)c1C(=O)NCC(F)F [Example 1-276]
80%: Post-emergence action against MATIN in % (MATIN [2]; dosage 20 g/ha) | Post-emergence action against ECHCG in % (ECHCG [4]; dosage 20 g/ha) | Post-emergence action against VERPE in % (VERPE [7]; 20 g/ha) | Post-emergence action against SETVI in % (SETVI [10]; dosage 5 g/ha) | Post-emergence action against SETVI in % (SETVI [10]; dosage 20 g/ha) | Post-emergence action against ABUTH in % (ABUTH [13]; dosage 5 g/ha) | Post-emergence action against ABUTH in % (ABUTH [13]; dosage 20 g/ha) | Post-emergence action against ALOMY in % (ALOMY [14]) | Post-emergence action against VIOTR in % (VIOTR [15]; 20 g/ha) | Pre-emergence action against VIOTR in % (VIOTR [16]; dosage 20 g/ha) | Pre-emergence action against POLCO in % (POLCO; dosage 20 g/ha)
100%: Post-emergence action at 20 g/ha against AMARE in % (AMARE [3]) | Pre-emergence action against ECHCG in % (ECHCG [5]; 80 g/ha) | Pre-emergence action against ABUTH (herbicidal activity) (ABUTH [6]; [21]) | Pre-emergence action against ABUTH (herbicidal activity in percent) (ABUTH [6]; dosage 20 g/ha, scored visually after 3 weeks vs untreated controls, 100% = plants have died, 0% = like control plants) | Pre-emergence action against ALOMY (herbicidal activity) (ALOMY [9]; 80 g/ha, pre-emergence, scored visually after 3 weeks vs untreated controls (100% = plants have died, 0% = like control plants)) | Pre-emergence action against MATIN in % (MATIN [11]; dosage 80 g/ha) | Pre-emergence action against AMARE in % (AMARE [12]; [21]) | Pre-emergence action against VIOTR in % (VIOTR [16]; dosage 80 g/ha) | Pre-emergence action against SETVI in % (SETVI [17])
90%: Pre-emergence action against PHBPU in % (PHBPU [1]) | Pre-emergence action against AVEFA in % (AVEFA) | Post-emergence action against PHBPU in % (PHBPU [8]) | Pre-emergence action against ALOMY (ALOMY [9]; 20 g/ha, scored visually after 3 weeks, 100% = plants have died, 0% = like control plants) | Pre-emergence action against MATIN in % (MATIN [11]; dosage 20 g/ha) | Pre-emergence action against AMARE in % (AMARE [12]; 20 g/ha, scored visually after 3 weeks vs untreated controls, 100% = plants have died, 0% = like control plants) | Pre-emergence action against POLCO in % (POLCO; dosage 80 g/ha)

CCNC(=O)c1c(C(F)F)ccc(C(=O)Nc2nnnn2C)c1CC [Example 1-278]
100%: pest or weed control at 80 g/ha (ECHCG [5]; Echinochloa crus-galli, 504 h, 80 g/ha) | pest or weed control at 80 g/ha (ABUTH [6]; Abutilon theophrasti, 504 h, 80 g/ha, scored visually after 3 weeks vs untreated controls (100% = plants have died, 0% = like control plants)) | pest or weed control at 20 g/ha (DIGSA [18]; dosage 20 g/ha) | pest or weed control at 80 g/ha (DIGSA [18]; dosage 80 g/ha) | pest or weed control at 20 g/ha (MATIN [11]; [22]) | pest or weed control at 80 g/ha (MATIN [11]; Tripleurospermum inodorum, 504 h, dosage 80 g/ha) | pest or weed control at 20 g/ha (AMARE [12]; Amaranthus retroflexus, 504 h, 20 g/ha, scored visually after 3 weeks vs untreated controls, 100% = plants have died, 0% = like control plants) | pest or weed control at 80 g/ha (AMARE [12]; Amaranthus retroflexus, 504 h, 80 g/ha, scored visually after 3 weeks vs untreated controls, 100% = plants have died, 0% = like control plants) | pest or weed control at 80 g/ha (VERPE [19]) | pest or weed control at 20 g/ha (VIOTR [16]; Viola tricolor, 504 h, dosage 20 g/ha) | pest or weed control at 80 g/ha (VIOTR [16]; Viola tricolor, 504 h, dosage 80 g/ha) | pest or weed control at 80 g/ha (POLCO; Fallopia convolvulus, 504 h, dosage 80 g/ha) | pest or weed control at 80 g/ha (SETVI [17]; Setaria viridis, 504 h)
90%: pest or weed control at 80 g/ha (PHBPU [1]; Ipomoea purpurea, 504 h) | pest or weed control at 20 g/ha (MATIN [2]; [22]) | pest or weed control at 20 g/ha (AMARE [3]; Amaranthus retroflexus, 504 h) | pest or weed control at 80 g/ha (AVEFA; Avena fatua, 504 h) | pest or weed control at 5 g/ha (ECHCG [4]; Echinochloa crus-galli, 504 h, dosage 5 g/ha) | pest or weed control at 20 g/ha (ECHCG [4]; Echinochloa crus-galli, 504 h, dosage 20 g/ha) | pest or weed control at 20 g/ha (ECHCG [5]; Echinochloa crus-galli, 504 h, 20 g/ha) | pest or weed control at 20 g/ha (ABUTH [6]; Abutilon theophrasti, 504 h, dosage 20 g/ha, scored visually after 3 weeks vs untreated controls, 100% = plants have died, 0% = like control plants, read-out: Pre-emergence action against ABUTH (herbicidal activity in percent)) | pest or weed control at 20 g/ha (VERPE [7]; Veronica persica, 504 h, 20 g/ha) | pest or weed control at 20 g/ha (PHBPU [8]; Ipomoea purpurea, 504 h) | pest or weed control at 80 g/ha (ALOMY [9]; Alopecurus myosuroides, 504 h, 80 g/ha, pre-emergence, scored visually after 3 weeks vs untreated controls (100% = plants have died, 0% = like control plants)) | pest or weed control at 20 g/ha (SETVI [10]; Setaria viridis, 504 h, dosage 20 g/ha) | pest or weed control at 20 g/ha (ABUTH [13]; Abutilon theophrasti, 504 h, dosage 20 g/ha) | pest or weed control at 5 g/ha (VIOTR [15]; Viola tricolor, 504 h, 5 g/ha) | pest or weed control at 20 g/ha (VIOTR [15]; Viola tricolor, 504 h, 20 g/ha) | pest or weed control at 5 g/ha (DIGSA [20]; 5 g/ha) | pest or weed control at 20 g/ha (DIGSA [20]; 20 g/ha) | pest or weed control at 20 g/ha (POLCO; Fallopia convolvulus, 504 h, dosage 20 g/ha)
80%: pest or weed control at 5 g/ha (MATIN [2]; Tripleurospermum inodorum, 504 h, dosage 5 g/ha) | pest or weed control at 5 g/ha (VERPE [7]; Veronica persica, 504 h, 5 g/ha) | pest or weed control at 5 g/ha (ABUTH [13]; Abutilon theophrasti, 504 h, dosage 5 g/ha)
